Reference: patent US20250171465A1, “AKT INHIBITORS” (Stablix, Inc., priority 2023, published 2025)

Experiments:
KU1919.1 = test: Cell Titer Glo (CTG) proliferation assay, KU1919; format: cell-based; conditions: Homo sapiens, KU-19-19; KU1919.1 cells, 72.0 hrs.; read-out: AVE CTG Proliferation KU1919.1 72.0 hrs.
Procedure: (§1) Seed cells in 40 μL of cell culture media into each well of 384-well cell culture plate, spin them at room temperature at 1,000 RPM for 1 minute and then transfer the plates into 37° C. 5% CO2 incubator overnight. Next day, treat cells with 40 nL of diluted compound and return to incubator. After compound treatment for 3 days, Add 30 μL of CellTiter-Glo reagent (Promega) into each well to be detected. Then place the plates at room temperature for 30 min followed by reading on EnVision. Inhibition activity calculated as % DMSO=100×(LumSample-Lum low control)/(Lum high control-Lum low control) where high control is from cells treated with 0.1% DMSO and Low control obtained from PBS only. Use XLFit (equation 201) to calculate IC50 (A+ ((B−A)/(1[…]((x/C)^D)))) where A: Bottom, B: Top, C: IC50, D: Slope.

MDAMB468.1 = test: Cell Titer Glo (CTG) proliferation assay, MDA-MB-468; format: cell-based; conditions: Homo sapiens, MDA-MB-468; MDAMB468.1 cells, 72.0 hrs.; read-out: AVE CTG Proliferation MDAMB468.1 72.0 hrs.
Procedure: as §1

Structure (SMILES)	IC50 (KU1919.1) [µM]	IC50 (MDAMB468.1) [µM]
CCc1cccc(-c2cnc(C(=O)N3CCC(CN4CCN(CC(=O)NCCNC[C@@H](C(=O)N5CCN(c6ncnc7c6[C@H](C)C[C@H]7O)CC5)c5ccc(Cl)cc5)CC4)CC3)c(NC(=O)CNCc3ccncn3)c2)c1 [Compound I-165]	> 10	> 10
CCc1cccc(-c2cnc(C(=O)N3CCC(OC4CCN(CC(=O)NCCNC[C@@H](C(=O)N5CCN(c6ncnc7c6[C@H](C)C[C@H]7O)CC5)c5ccc(Cl)cc5)CC4)CC3)c(NC(=O)CNCc3ccncn3)c2)c1 [Compound I-167]	> 10	> 10
CCOc1cc(OC)ccc1CNCC(=O)N1CCCC(c2cccc(C(=O)N[C@@H](C(=O)N3CCN(CC4CCN(CC(=O)NCCN(C[C@@H](C(=O)N5CCN(c6nncc7c6[C@H](C)C[C@H]7O)CC5)c5ccc(Cl)cc5)C(C)C)CC4)CC3)C3CCCCC3)c2)C1 (some centres unmarked) [Compound I-171]	0.5 to 1	1 to 5
CCc1cccc(-c2cnc(C(=O)N3CCC(CN4CCN(CC(=O)NCCNC[C@@H](C(=O)N5CCN(c6ncnc7c6[C@H](C)C[C@H]7O)CC5)c5ccc(Cl)cc5)CC4)CC3)c(NC(=O)CN3CCOCC3)c2)c1 [Compound I-172]	5 to 10	5 to 10
CCc1cccc(-c2cnc(C(=O)N3CCN(CC4CCN(CC(=O)NCCNC[C@@H](C(=O)N5CCN(c6ncnc7c6[C@H](C)C[C@H]7O)CC5)c5ccc(Cl)cc5)CC4)CC3)c(NC(=O)CN3CCOCC3)c2)c1 [Compound I-173]	1 to 5	1 to 5
CCc1cccc(-c2cnc(C(=O)N3CCC(OC4CCN(CC(=O)NCCNC[C@@H](C(=O)N5CCN(c6ncnc7c6[C@H](C)C[C@H]7O)CC5)c5ccc(Cl)cc5)CC4)CC3)c(NC(=O)CN3CCOCC3)c2)c1 [Compound I-174]	1 to 5	1 to 5
CCc1cccc(-c2cnc(C(=O)N3CCN(CC45CCC(NCC(=O)NCCNC[C@@H](C(=O)N6CCN(c7ncnc8c7[C@H](C)C[C@H]8O)CC6)c6ccc(Cl)cc6)(CC4)CO5)CC3)c(NC(=O)CN3CCOCC3)c2)c1 [Compound I-175]	1 to 5	1 to 5
CCc1cccc(-c2cnc(C(=O)NCCOCCNCC[C@H](NC(=O)C3(N)CCN(c4ncnc5[nH]ccc45)CC3)c3ccc(Cl)cc3)c(N)c2)c1 [Compound I-183]	5 to 10	5 to 10
CCc1cccc(-c2cnc(C(=O)NCCOCCNCC[C@H](NC(=O)C3(N)CCN(c4ncnc5[nH]ccc45)CC3)c3ccc(Cl)cc3)c(NC(C)=O)c2)c1 [Compound I-184]	5 to 10	> 10
CCc1cccc(-c2cnc(C(=O)N3CCC(OC4CCN(CC(=O)NCCNC[C@@H](C(=O)N5CCN(c6ncnc7c6[C@H](C)C[C@H]7O)CC5)c5ccc(Cl)cc5)CC4)CC3)c(N)c2)c1 [Compound I-194]	5 to 10	5 to 10
CCc1cccc(-c2cnc(C(=O)N3CCN(CC45CCC(NCC(=O)NCCNC[C@@H](C(=O)N6CCN(c7ncnc8c7[C@H](C)C[C@H]8O)CC6)c6ccc(Cl)cc6)(CC4)CO5)CC3)c(N)c2)c1 [Compound I-195]	> 10	> 10
CCc1cccc(-c2cnc(C(=O)N3CCN(CC45CCC(NCC(=O)NCCNC[C@@H](C(=O)N6CCN(c7ncnc8c7[C@H](C)C[C@H]8O)CC6)c6ccc(Cl)cc6)(CC4)CO5)CC3)c(NC(C)=O)c2)c1 [Compound I-197]	5 to 10	1 to 5
CC(C)N(CCNC(=O)CN1CCC(CN2CCN(C(=O)[C@H](NC(=O)c3cccc(C4CCCN(C(=O)CNCc5ccc(F)cc5F)C4)c3)C3CCCCC3)CC2)CC1)C[C@@H](C(=O)N1CCN(c2ncnc3c2[C@H](C)C[C@H]3O)CC1)c1ccc(Cl)cc1 (some centres unmarked) [Compound I-200]	1 to 5	1 to 5
C[C@@H]1C[C@@H](O)c2ncnc(N3CCN(C(=O)[C@H](CNCCNC(=O)CNC45CCC(CN6CCN(C(=O)[C@H](NC(=O)c7cccc(C8CCCN(C(=O)CNCc9ccc(F)cc9F)C8)c7)C7CCCCC7)CC6)(CC4)OC5)c4ccc(Cl)cc4)CC3)c21 (some centres unmarked) [Compound I-203]	5 to 10	5 to 10
C[C@@H]1C[C@@H](O)c2ncnc(N3CCN(C(=O)[C@H](CNCCNC(=O)CN4CCC(CN5CCN(C(=O)[C@H](NC(=O)c6cccc(C7CCCN(C(=O)CNC8CC8)C7)c6)C6CCCCC6)CC5)CC4)c4ccc(Cl)cc4)CC3)c21 (some centres unmarked) [Compound I-205]	5 to 10	> 10
C[C@@H]1C[C@@H](O)c2ncnc(N3CCN(C(=O)[C@H](CNC4CCN(CC5CCN(C(=O)[C@H](NC(=O)c6cccc(C7CCCN(C(=O)C8CC8)C7)c6)C6CCCCC6)CC5)CC4)c4ccc(Cl)cc4)CC3)c21 (some centres unmarked) [Compound I-214]	1 to 5	1 to 5
C[C@@H]1C[C@@H](O)c2ncnc(N3CCN(C(=O)[C@H](CNCCNC(=O)CNC45CCC(CN6CCN(C(=O)[C@H](NC(=O)c7cccc(C8CCCN(C(=O)C9CC9)C8)c7)C7CCCCC7)CC6)(CC4)OC5)c4ccc(Cl)cc4)CC3)c21 (some centres unmarked) [Compound I-215]	> 10	> 10
C=CC(=O)N1CCN(c2ccc(CCC(=O)NCCOCCNCC[C@H](NC(=O)C3(N)CCN(c4ncnc5[nH]ccc45)CC3)c3ccc(Cl)cc3)o2)C(=O)C1 [Compound I-287]	> 10	

Structure (SMILES)	IC50 (KU1919.1) [µM]	IC50 (MDAMB468.1) [µM]
NC1(C(=O)N[C@@H](CCN2CCC(OC3CCN(C(=O)[C@H](NC(=O)c4cccc(C5CCN(C(=O)C6CC6)CC5)c4F)C4CCCCC4)CC3)CC2)c2ccc(Cl)cc2)CCN(c2ncnc3[nH]ccc23)CC1 [Compound I-288]	1 to 5	
NC1(C(=O)N[C@@H](CCN2CCC(OC3CCN(C(=O)c4cccc(C5CCCN(C(=O)CNCc6ccc(F)cc6F)C5)c4F)CC3)CC2)c2ccc(Cl)cc2)CCN(c2ncnc3[nH]ccc23)CC1 (some centres unmarked) [Compound I-289]	1 to 5	
NC1(C(=O)N[C@@H](CCN2CCC(OC3CCN(C(=O)c4cccc(C5CCCN(C(=O)C6CC6)C5)c4F)CC3)CC2)c2ccc(Cl)cc2)CCN(c2ncnc3[nH]ccc23)CC1 (some centres unmarked) [Compound I-290]	1 to 5	
C[C@@H]1C[C@@H](O)c2ncnc(N3CCN(C(=O)[C@H](CN4CCC(OC5CCN(C(=O)[C@H](NC(=O)c6cccc(C7CCCN(C(=O)C8(C)CC8)C7)c6F)C6CCCCC6)CC5)CC4)c4ccc(Cl)cc4)CC3)c21 (some centres unmarked) [Compound I-291]	1 to 5	
C[C@@H]1C[C@@H](O)c2ncnc(N3CCN(C(=O)[C@H](CN4CCC(OC5CCN(C(=O)[C@H](NC(=O)c6cccc(C7CCCN(C(=O)C89CC(C8)C9)C7)c6F)C6CCCCC6)CC5)CC4)c4ccc(Cl)cc4)CC3)c21 (some centres unmarked) [Compound I-292]	1 to 5	
NC1(C(=O)N[C@@H](CCOCCN2CCC(OC3CCN(C(=O)[C@H](NC(=O)c4cccc(C5CCCN(C(=O)C67CC(C6)C7)C5)c4)C4CCCCC4)CC3)CC2)c2ccc(Cl)cc2)CCN(c2ncnc3[nH]ccc23)CC1 (some centres unmarked) [Compound I-293]	1 to 5	
CC1(C(=O)N2CCCC(c3cccc(C(=O)N[C@@H](C(=O)N4CCC(OC5CCN(CCOCC[C@H](NC(=O)C6(N)CCN(c7ncnc8[nH]ccc78)CC6)c6ccc(Cl)cc6)CC5)CC4)C4CCCCC4)c3)C2)CC1 (some centres unmarked) [Compound I-294]	1 to 5	
NC1(C(=O)N[C@@H](CCOCCN2CCC(OC3CCN(C(=O)[C@H](NC(=O)c4cccc(C5CCCN(C(=O)CNC6CC6)C5)c4)C4CCCCC4)CC3)CC2)c2ccc(Cl)cc2)CCN(c2ncnc3[nH]ccc23)CC1 (some centres unmarked) [Compound I-295]	1 to 5	
NC1(C(=O)N[C@@H](CCOCCCCCNC(=O)[C@H](NC(=O)c2cccc(C3CCCN(C(=O)C45CC(C4)C5)C3)c2)C2CCCCC2)c2ccc(Cl)cc2)CCN(c2ncnc3[nH]ccc23)CC1 (some centres unmarked) [Compound I-296]	> 10	
CC1(C(=O)N2CCCC(c3cccc(C(=O)N[C@@H](C(=O)NCCCCCOCC[C@H](NC(=O)C4(N)CCN(c5ncnc6[nH]ccc56)CC4)c4ccc(Cl)cc4)C4CCCCC4)c3)C2)CC1 (some centres unmarked) [Compound I-297]	5 to 10	
NC1(C(=O)N[C@@H](CCOCCCCCNC(=O)[C@H](NC(=O)c2cccc(C3CCCN(C(=O)CNC4CC4)C3)c2)C2CCCCC2)c2ccc(Cl)cc2)CCN(c2ncnc3[nH]ccc23)CC1 (some centres unmarked) [Compound I-298]	1 to 5	
CC(C)(C)OC(=O)N[C@@H](C(=O)N1CCN(CC23CCC(C(=O)N4CCN(CC[C@H](NC(=O)C5(N)CCN(c6ncnc7[nH]ccc67)CC5)c5ccc(Cl)cc5)CC4)(CC2)CO3)CC1)C1CCCCC1 [Compound I-308]	1 to 5	
CC(C)(C)OC(=O)N[C@@H](C(=O)NCCCCS(=O)(=O)NCC[C@H](NC(=O)C1(N)CCN(c2ncnc3[nH]ccc23)CC1)c1ccc(Cl)cc1)C1CCCCC1 [Compound I-309]	1 to 5	
CC(C)(C)OC(=O)N[C@@H](C(=O)N1CCC(OC2CCN(CC[C@H](NC(=O)C3(N)CCN(c4ncnc5[nH]ccc45)CC3)c3ccc(Cl)cc3)CC2)CC1)C1CCCCC1 [Compound I-311]	0.5 to 1	
CC(C)(C)OC(=O)N[C@@H](C(=O)NCC[C@H](NC(=O)C1(N)CCN(c2ncnc3[nH]ccc23)CC1)c1ccc(Cl)cc1)C1CCCCC1 [Compound I-313]	1 to 5	
C[C@@H]1C[C@@H](O)c2ncnc(N3CCN(C(=O)[C@H](CNCCNC(=O)CN4CCC(OC5CCN(C(=O)OC(C)(C)C)CC5)CC4)c4ccc(Cl)cc4)CC3)c21 [Compound I-314]	1 to 5	
CC(C)(C)OC(=O)N1CCC(OC2CCN(CC[C@H](NC(=O)C3(N)CCN(c4ncnc5[nH]ccc45)CC3)c3ccc(Cl)cc3)CC2)CC1 [Compound I-316]	1 to 5	
C[C@@H]1C[C@@H](O)c2ncnc(N3CCN(C(=O)[C@H](CNCCNC(=O)CNC45CCC(CN6CCN(C(=O)[C@H](NC(=O)c7cccc(C8CCCN(C(=O)CNC9CC9)C8)c7)C7CCCCC7)CC6)(CC4)OC5)c4ccc(Cl)cc4)CC3)c21 (some centres unmarked) [Compound I-326]	5 to 10	
